Consider 6 compounds from patent US20120107601A1, “SYSTEMS AND METHODS OF TEMPLATING USING PARTICLES SUCH AS COLLOIDAL PARTICLES” (President and Fellows of Harvard College, priority 2009, published 2012).

How the values of the series were obtained: To ensure that the introduction of the hydrophobic compounds into the template structure would not lead to rearrangement of the particles in the 3D array, some of the templates were sintered prior to the introduction step. Sintering temperatures between 700 and 1200° C. were used to evaluate the conditions needed to form strong interparticle necks without distorting the initial packed structure. Sintering was accomplished under a O2 gas flow of 0.7 L/min (Thermo Scientific Lindberg Blue M Three-Zone Tube Furnace, Cole-Parmer, Vernon Hills, Ill., USA) applying a dwell time period of 2 hours. Introduction of the hydrophobic compounds into the interstices of the packed array of particles was accomplished by first placing the template on a hot plate at a predetermined temperature and afterwards depositing the powdery hydrophobic compound on the top of the heated template. The temperature of the hot plate was adjusted to enable melting of the hydrophobic compound on the template surface. Once in liquid form, the compound was sucked into the interstices of the template structure by capillary forces. […] After fluid introduction, the templates were removed from the hot plate and cooled in air at ambient temperature. The fluid-introduced templates were finally fractured to enable evaluation of the fluid-introduction efficiency in an electron microscope.
Drug-template composites were prepared in the following manner. Templates were prepared from an aqueous colloidal dispersion using the slip-casting method described previously. After slip-casting, the templates were dried in an oven at 110° C. for 12 hours. The templates were then placed on a hotplate at a temperature approximately 5° C. to 10° C. above the melting point of the drug. A small amount of the raw crystalline drug was placed on the surface of the hot template. As the drug was melted, it was drawn into the template by capillary action. These steps were repeated until the template was filled completely. […] The drug-template composites were prepared for dissolution by mild grinding of the sample with a hand-held mortar and pestle.
The samples were prepared for NMR by the following procedure. Unprocessed, crystalline powders (BASF) were dissolved in deuterated solvents at a concentration of approximately 10 mg/mL and filtered through a 0.2 micrometer PTFE filter to remove any solid impurities before running NMR measurements. Drug-silica composites were ground using a hand-held mortar and pestle, dissolved in deuterated solvents at a (drug) concentration of approximately 10 mg/mL and filtered through a 0.2 micrometer PTFE filter to remove the silica template and any additional solid impurities before running NMR measurements. […] Estradiol was dissolved in deuterated DMSO. […] It is, therefore, to be understood that the foregoing embodiments are presented by way of example only and that, within the scope of the appended claims and equivalents thereto, the invention may be practiced otherwise than as specifically described and claimed. The present invention is directed to each individual feature, system, article, material, kit, and/or method described herein. In addition, any combination of two or more such features, systems, articles, materials, kits, and/or methods, if such features, systems, articles, materials, kits, and/or methods are not mutually inconsistent, is included within the scope of the present invention.

Regarding `CC(C)OC(=O)C(C)(C)Oc1ccc(C(=O)c2ccc(Cl)cc2)cc1` [fenofibrate], the “melting without decomposition (introduction of molten compound into templates)” value was “can be melted without decomposition”.
As for `CCC(C)n1ncn(-c2ccc(N3CCN(c4ccc(OCC5COC(Cn6cncn6)(c6ccc(Cl)cc6Cl)O5)cc4)CC3)cc2)c1=O` (centres unmarked) [itraconazole], the stability upon melting result was “stable upon melting”; the “visible color change upon melting and infiltration into the composites” value is “no visible color change”.
Taken in the same sequence, the figures for `C[C@]12CC[C@@H]3c4ccc(O)cc4CC[C@H]3[C@@H]1CC[C@@H]2O` [estradiol] were “stable upon melting” and “no visible color change”.
As to `C(=C\c1ccccc1)/CN1CCN(C(c2ccccc2)c2ccccc2)CC1` [cinnarizine], the “melting without decomposition (introduction of molten compound into templates)” value was “can be melted without decomposition” and the stability upon melting result was “stable upon melting”.
Turning to `Clc1ccccc1C(c1ccccc1)(c1ccccc1)n1ccnc1` [chlotrimazole], the stability upon melting result was “stable upon melting”; the “visible color change upon melting and infiltration into the composites” value is “no visible color change”.
Taken in the same sequence, the figures for `CC(=O)N1CCN(c2ccc(OCC3COC(Cn4ccnc4)(c4ccc(Cl)cc4Cl)O3)cc2)CC1` (centres unmarked) [ketoconazole] were “stable upon melting” and “no visible color change”.
